This experiment has as its system CEM cells HIV-1 protection, formazan growth assay. The experiment is described as follows: NCI AIDS Antiviral Assay. The settings on record: for IC50: measured here: growth of uninfected CEM cells. Summed up:
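Human CEM cells, uninfected and HIV-1-infected, received five drug concentrations, and growth was read by soluble formazan assay. Compounds giving at least 50% protection were retested; reproducible 100% protection defined confirmed active.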

Calls of active or inactive are those of the source.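 The calls were made as follows: active = compounds giving half or more protection of infected cells from virus-caused growth loss, again on retest; inactive = the rest.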 Where a SMILES comes first, the peptide text is derived from it. The star is where a group is joined. Boc = CC(C)(C)OC(=O)*; tBu = CC(C)(C)*

As usually defined, the EC50 is the concentration at which the effect is half-maximal. What is called IC50 is the concentration needed to halve the response being measured. Low values mean higher potency, high ones lower potency.

As to `CC(C)(C)c1cc2c(O)c(c1)Cc1cc(C(C)(C)C)cc(c1O)Cc1cc(C(C)(C)C)cc(c1O)Cc1cc(C(C)(C)C)cc(c1O)C2`, the EC50 is more than 77.6 µM and the 50% inhibitory concentration (IC50) is more than 77.6 µM.
Take `CCOC1NC(=O)Oc2ccccc21` (stereo not drawn): the outcome was inactive.
For `Cc1ccc(C(=O)O)c(/C=C2\Cc3cc(C)cc(C)c3C2=O)c1`, the outcome was inactive.
With `CN(C)Cc1cc(/C=C/C(=O)c2ccc(Cl)c(Cl)c2)cc(CN(C)C)c1O`, the EC50 is more than 151 µM and the half-inhibitory concentration (IC50) worked out at 6.31 µM.
With `CCOC(=O)CCC(NC(=O)c1ccc(OCc2nc3cc(C(F)(F)F)ccc3nc2-c2ccccc2)cc1)C(=O)OCC` (stereo not drawn), the EC50 is more than 200 µM and the IC50 is 27.5 µM.
For `Cn1cc(C(=O)c2ccccc2)cc(C(=O)c2ccccc2)c1=O`, the result was inactive.
For the compound `O=C(ON=C1c2ccccc2C(Br)C(Br)c2ccccc21)c1cc([N+](=O)[O-])cc([N+](=O)[O-])c1` (stereo not drawn), the EC50 is more than 200 µM and the half-inhibitory concentration (IC50) was 0.851 µM.
`CC1CCCC(C)N1Cc1cccnc1` (stereo not drawn): the result was inactive.
Consider `CCOC(=O)Nc1cc(NC(C)/C(=N/O)c2ccccc2)c([N+](=O)[O-])c(N)n1` (stereo not drawn), for which the outcome was inactive.
Consider `CC(C)(C)NC(=O)NC12CC3CC(CC(F)(C3)C1)C2`, for which the EC50 is more than 26.9 µM and the IC50 was more than 26.9 µM.
Regarding `O=C(CC/C=C(/CS(=O)(=O)c1ccccc1)S(=O)(=O)c1ccccc1)c1ccccc1`, the EC50 was more than 100 µM and the IC50 is more than 100 µM.
On to `c1cc2c(cc1NC1=NCCO1)OCO2`, for which the EC50 is more than 200 µM and the IC50 is 58.9 µM.
In the case of `OCCCCOC(c1ccccc1)(c1ccccc1)c1ccccc1`, the EC50 was more than 15.8 µM and the concentration for half-maximal inhibition (IC50) was more than 15.8 µM.
As for `O=C(O)C1=C(C(=O)O)N(c2ccncc2)C(c2ccco2)=CC1c1ccccc1[N+](=O)[O-]` (stereo not drawn), the EC50 was more than 200 µM and the IC50 was found to be 2.24 µM.
For the compound `Cc1cc(Cl)ccc1NC(=O)CCCC(=O)C(C(=O)c1ccccc1)c1ccccc1` (stereo not drawn), the result was inactive.
Consider `CC(=O)OCC12C(OC(C)=O)C[C@@H](C)C3(CC(c4ccoc4)OC3=O)C1CCC(O)C21CO1` (stereo partly drawn), for which the EC50 was more than 200 µM and the half-inhibitory concentration (IC50) was more than 200 µM.
`O=C(OC1CN2CCC1CC2)N(c1ccccc1)c1ccccc1` (stereo not drawn): the EC50 was more than 200 µM and the IC50 is more than 200 µM.
As to `Nc1o[nH]c(=O)c1-c1ccccc1`, the EC50 is more than 200 µM and the IC50 is more than 200 µM.
Regarding `COc1ccc(C(=O)C(CC2C(=O)NC(=O)NC2=O)c2ccc(OC)cc2)cc1` (stereo not drawn), the EC50 is more than 34.7 µM and the IC50 was more than 34.7 µM.
Consider `CCOC(=O)c1sc2nc(SC)nc3c2c1N=CN3c1ccccc1Cl`, for which the EC50 is more than 100 µM and the IC50 was more than 100 µM.
Regarding `Nc1nc(Cl)cc(OCC2(CO)CC=CC2)n1`, the EC50 is more than 200 µM and the half-inhibitory concentration (IC50) was 126 µM.
In the case of `CC(C)(C)OC(=O)NC(CSSCC(NC(=O)OC(C)(C)C)C(=O)O)C(=O)O` (stereo not drawn), the EC50 was more than 200 µM and the half-inhibitory concentration (IC50) is more than 200 µM.
Regarding `OC1CCSc2ccccc21` (stereo not drawn), the EC50 is more than 200 µM and the half-inhibitory concentration (IC50) was more than 200 µM.
For the compound `C=C1c2nc3ccccc3n2C=C(c2ccc(Cl)cc2)N1c1ccccc1`, the EC50 is more than 200 µM and the concentration for half-maximal inhibition (IC50) stood at 95.5 µM.
As for `C=C1C(=O)OC2CC(C)C(C(O)CC(C)O)=CCC12` (stereo not drawn), the EC50 is more than 447 µM and the IC50 was 8.32 µM.
Taken in the same sequence, the figures for `Cc1ccc2oc(=O)c(C#N)c(/C=C/c3ccc(Cl)cc3)c2c1` were more than 200 µM and more than 200 µM.
In the case of `CCCCC1C=Cn2c(=O)oc3c(OC(C)C)c(C)c(O)c1c32` (stereo not drawn), the EC50 is more than 200 µM and the IC50 was 2.51 µM.
`Cc1sc2nc3n(c(=O)c2c1C)N=C(c1ccc(Cl)cc1)CS3`: the EC50 was more than 200 µM and the concentration for half-maximal inhibition (IC50) was more than 200 µM.
Regarding `O=C(O)/C(=C/c1ccccc1[N+](=O)[O-])c1ccccc1`, the EC50 is more than 603 µM and the IC50 came to 550 µM.
On to `N#CC(C(=O)/C(=N/N)C(C#N)c1ccc(Cl)cc1)c1ccc(Cl)cc1` (stereo not drawn), for which the EC50 is more than 676 µM and the half-inhibitory concentration (IC50) is more than 676 µM.
Regarding `Cc1cc2nc3ccccc3n2c2nc(N)ccc12`, the EC50 was more than 200 µM and the half-maximal inhibitory concentration (IC50) stood at 6.61 µM.
On to `O=C(NCCC1([N+](=O)[O-])CCN(C(=O)c2ccccc2)CC1)c1ccccc1`, for which the outcome was inactive.
`COc1ccc2nc3cc(Cl)ccc3c(Sc3ccc(N)cc3)c2c1`: the EC50 is more than 14.1 µM and the half-inhibitory concentration (IC50) was 3.31 µM.
For the compound `O=C1CC(=O)N(CCc2ccccc2)S(=O)(=O)N1CCc1ccccc1`, the EC50 is more than 200 µM and the IC50 turned out to be 35.5 µM.
As for `N#CC(C#N)=C1NC(=O)CC(=O)N1`, the result was inactive.
As for `Clc1ccc(Nc2nn3c(CCCCCCCCc4nnc5sc(Nc6ccc(Cl)cc6)nn45)nnc3s2)cc1`, the EC50 is more than 200 µM and the half-maximal inhibitory concentration (IC50) turned out to be 112 µM.
Regarding `CCOC(=O)c1[nH]n(-c2ccccc2)c(=O)c1/C=N/C(N)=S`, the EC50 was more than 200 µM and the 50% inhibitory concentration (IC50) was more than 200 µM.
Consider `CCC(C)N1CN(c2ccccc2)C2(CCN(CC3COc4ccccc4O3)CC2)C1=O` (stereo not drawn), for which the EC50 is more than 200 µM and the IC50 came out at 29.5 µM.
Turning to `Cc1ccc(S(=O)(=O)NC(CSSCC(NS(=O)(=O)c2ccc(C)cc2)C(=O)OC(C)(C)C)C(=O)OC(C)(C)C)cc1` (stereo not drawn), the EC50 was more than 200 µM and the IC50 was more than 200 µM.
As to `CC(C)C(CCOS(=O)(=O)O)CCC(C)[C@H]1[C@@H](O)C(O)C2[C@]3(O)C[C@@H](O)C4(O)C[C@@H](O)CC[C@]4(C)C3CC[C@@]21C` (stereo partly drawn), the result was inactive.
For `COC(=O)C1=CC2OC1(C)CCC2=O` (stereo not drawn), the outcome was inactive.
For `NCCCCC(N)C(=O)NCCNc1ccc(NCCNC(=O)C(N)CCCCN)c2c1C(=O)c1ccccc1C2=O` (stereo not drawn), the EC50 is more than 100 µM and the IC50 is 3.39 µM.
Consider `Fc1cccc2c(SCc3ccc(Cl)cc3Cl)cnnc12`, for which the EC50 is more than 15.5 µM and the IC50 was more than 15.5 µM.
For the compound `COc1ccc(-c2cc(-c3ccccc3)[nH]c(=O)c2N(C)C)cc1`, the EC50 was more than 58.9 µM and the IC50 is more than 58.9 µM.
Take `O[C@@H]1CCNC[C@@H]1CNC12CC3CC(CC(C3)C1)C2`: the EC50 was more than 955 µM and the IC50 came out at 275 µM.
Taken in the same sequence, the figures for `CC1CC(c2ccc([N+](=O)[O-])cc2)=Nc2ccccc2S1` (stereo not drawn) were more than 9.12 µM and more than 9.12 µM.
For `N#CCCC(C=O)(CCC#N)CCC#N`, the EC50 is more than 200 µM and the IC50 was more than 200 µM.
In the case of `CC(CC12CCC3(OO1)C(C)(C)CCCC3(C)O2)OC(=O)c1ccccc1` (stereo not drawn), the EC50 was more than 200 µM and the IC50 came out at 18.2 µM.
In the case of `COC(=O)[C@@H]1C=C[C@H](OC2OC(COC(C)=O)C(OC(C)=O)C(OC(C)=O)C2OC(C)=O)n2c(=O)c3ccccc3c(=O)n21` (stereo partly drawn), the EC50 was more than 200 µM and the IC50 worked out at 10.7 µM.
Consider `CCOC(=O)N1C=NC23C(c4ccccc4)C(c4ccccc4)C12C(=O)N(C)C(=O)N3C` (stereo not drawn), for which the EC50 was more than 22.9 µM and the half-maximal inhibitory concentration (IC50) is more than 22.9 µM.
In the case of `COC(=O)C(CC1CC(OC(C)=O)c2[nH]c3ccccc3c2CCN(C(C)=O)C1)C(=O)OC` (stereo not drawn), the EC50 is more than 135 µM and the 50% inhibitory concentration (IC50) is more than 135 µM.
Consider `COc1cc(/C=C2\CN(C)CC3=C2NC(=S)NC3c2cc(OC)c(OC)c(OC)c2)cc(OC)c1OC` (stereo not drawn), for which the EC50 is more than 200 µM and the IC50 is 38.9 µM.
Turning to `CCOP(=O)(OCC)C(c1ccc(F)cc1)N(C(=O)NC(F)(F)F)c1ccc(OC)cc1` (stereo not drawn), the EC50 was more than 200 µM and the half-maximal inhibitory concentration (IC50) is more than 200 µM.
For `COc1cc2ccc1OCc1cccc(n1)COc1ccc(cc1OC)C=NCCNCCNCCN=C2`, the EC50 was more than 200 µM and the IC50 amounted to 110 µM.
As to `CCOC(=O)c1[nH]c(CN(C)Cc2[nH]c(C(=O)OCC)c(C)c2C(=O)OCc2ccccc2)c(C(=O)OCc2ccccc2)c1C`, the EC50 is more than 6.03 µM and the concentration for half-maximal inhibition (IC50) is more than 6.03 µM.
With `CC(OC(C)(C)C)C(NC(=O)C(N)CCCCNC(=O)OC(C)(C)C)C(=O)NC(Cc1ccccc1)C(=O)O` (stereo not drawn) (H-Lys(Boc)-Thr(tBu)-Phe-OH; configuration not given here), the EC50 is more than 200 µM and the 50% inhibitory concentration (IC50) is more than 200 µM.
For `CCOC1=NC(C(F)(F)F)(C(F)(F)F)N=C(N2CCCCC2)O1`, the EC50 was more than 200 µM and the half-maximal inhibitory concentration (IC50) was found to be 97.7 µM.
`O=C(NNC(=S)NC1OC(CO)C(O)C(O)C1O)c1cccc(C(=O)NNC(=S)NC2OC(CO)C(O)C(O)C2O)n1` (stereo not drawn) gave a 50% inhibitory concentration (IC50) of more than 200 µM.
Take `CC(=O)[O-].CC(=O)[O-].O=C(N/N=C/c1cc(Cl)cc(Cl)c1[OH2+])c1ccncc1.[Mn+2]`: the outcome was inactive.
Take `C#CCN1CCN(C(=S)N/N=C(\C)c2ccccn2)CC1`: the EC50 was more than 2.24 µM and the IC50 is 0.0724 µM.
Regarding `Cc1cnc2c(ccc3c(C)c(C)c(C)nc32)c1C.Cc1cnc2c(ccc3c(C)c(C)c(C)nc32)c1C.O=C1OC(C(O)C[O-])C(O)=C1O.[Cu+]`, the EC50 was more than 25.1 µM and the 50% inhibitory concentration (IC50) was 1.29 µM.
For the compound `c1cncc(CN2CCCCCC2)c1`, the outcome was inactive.
As for `Cn1c2c(c(=O)n(C)c1=O)CS(=O)c1ccccc1N2` (stereo not drawn), the EC50 is more than 309 µM and the half-maximal inhibitory concentration (IC50) is 234 µM.
For `NC(=O)N/N=C(/CC1C(=O)Oc2ccccc21)c1ccccc1O` (stereo not drawn), the EC50 is more than 550 µM and the IC50 was 295 µM.
Take `COc1cccc(CCNc2c(C#N)c3nc4ccccc4n3c3ccccc23)c1`: the EC50 was more than 200 µM and the 50% inhibitory concentration (IC50) was 0.295 µM.
Take `N.N.N.N.N.N.[Br-].[Co+3]`: the result was inactive.
For `CCOC(=O)c1ccc(CS(=O)(=O)c2ccc(N)cc2)c([N+](=O)[O-])c1`, the EC50 was more than 100 µM and the IC50 was more than 100 µM.
For the compound `CC1=N/C(=C\c2ccc(-c3ccccc3)cc2)C(=O)O1`, the EC50 is more than 20 µM and the IC50 is more than 20 µM.
Consider `CCOC(=O)C(NC(=O)CC)(Nc1cc(C)on1)C(F)(F)F` (stereo not drawn), for which the EC50 was more than 200 µM and the IC50 is more than 200 µM.
For the compound `CCOC(=O)c1ccc(CS(=O)c2ccc(C)cc2)c([N+](=O)[O-])c1` (stereo not drawn), the EC50 is more than 74.1 µM and the 50% inhibitory concentration (IC50) came to 14.5 µM.
Taken in the same sequence, the figures for `CC(C(C(=O)O)S(=O)(=O)O)C(C(=O)O)S(=O)(=O)O` (stereo not drawn) were more than 100 µM and 20.4 µM.

The values above are taken from PubChem BioAssay AID179 (DTP/NCI, 2004).
